According to patent US6492329B1, “Cytokine and hemopoietic factor endogenous production enhancer and methods of use thereof” (Novelos Therapeutics, Inc., priority 1995, dated 2002):

How the values were obtained:
[1] = system: rat embrional fibroblasts (REF); experiment: Number of REF cells throughout 72-hr incubation; assay type: cell-based
Protocol: (§1) To this end, these substances had been incubated for 72 hours with cells of rat embrional fibroblasts (REF) and the same cells, transformed with adenoviral E1A gene in complementation with ras-oncogene (e-ras cell line). Subsequent evaluation of the cellularity of experimental samples was carried out by counting the quantity of cell per milliliter (for REF cell line) or clones in dish (for e-ras cell line).
(§2) Cells were cultivated on DMEM medium supplemented with 10% fetal calf serum and […] gentamicin. Cultivation was carried out in Petri dishes.
(§3) REF cells was cultivated with initial density of 800 000 cell per mL, evaluation of the cellularity was performed at 0, 24, 48 and 72 hours of incubation with the test articles.
(§4) For the test-system for estimation of apoptosis regulation UV-induced cell death was triggered in a dose of 4 Dj. Test articles were added immediately after irradiation. Then, the quantity of cell per milliliter (for REF cell line) or clones in dish (for e-ras cell line) were monitored every 24 hours. For determination of DNA-fragmentation the electrophoresis in agarose gel was used at standard settings.

leukemia P388 cells [2] = experiment: Leukemia P388 in mice: ascitic fluid and survival (Example 14); conditions: for Accumulation of ascitic (weight gain, %): leukemia P388
Protocol: (§6) An influence of 7 day course of test article daily administration was studied in respect of tumor progression, which was estimated using the two integral indices: pace of mouse weight gain due to accumulation of ascitic fluid, and by animal mean survival time after inoculation.
(§7) The study was carried out on DBA/2 mice weighing 18-21 g. First, tumor cell passage was performed using 6 animals for each cell line. For this, cells kept at the temperature of the liquid nitrogen were de-frozen and adjusted to the concentration of 5×10^6 cells/mL by sterile Hanks' solution. Then, 6 mice were intra peritoneally inoculated with 0.2 mL of each line cellular suspension.
(§8) Ascitic fluid was collected 6 days after the inoculation with L1210 cells, 8 days after the inoculation with P388 ones and 18 days after inoculation with Erlich adenocarcinoma cells. Thus obtained, the samples of passaged tumor cells were used for the main experiments. The fluid liquid was dissolved by sterile Hanks' solution so that cell concentration be 5×10^6 cells/mL for P388 cells and Erlich adenocarcinoma cells, 5×10^5 cells/mL for L1210 cells.
(§9) Eleven groups of animals with no less than 15 mice each were formed for experiments with either tumor cell line. Mice were inoculated with 0.2 mL of resultant cell suspensions per mouse (10^6 P388 and Erlich adenocarcinoma cells/mouse, and 10^5 L1210 cells/mouse). 24 hours after the tumor cells inoculation, animals were given the first injections of the test articles or vehicles. The test article injections were made daily till the 14th day of the experiment or till the animal death. The volume of solutions injected comprised 0.01 mL/g body weight.
(§10) #1—intact animals receiving imitation of tumor cell inoculation (injection of normal saline) which further were treated with normal saline throughout the entire experiment;
(§11) #2—control animals, inoculated with tumor cells, which further were treated with test article vehicle (normal saline);

[3] = system: e-ras cells after UV-irradiation; experiment: Number of clones of e-ras cells after UV-irradiation; assay type: cell-based, rat
Protocol: as §1, §2
(§5) E-ras cells were seeded at a cell density of 300 cells per 5 cm dish. 7 days after growth of e-ras cells had been started the quantity of clones was evaluated and the test articles were added into the dishes.
as §4

[4] = system: Erlich adenocarcinoma cells; experiment: Erlich adenocarcinoma in mice: ascitic fluid and survival (Example 14); conditions: for Accumulation of ascitic (weight gain, %): Erlich adenocarcinoma
normal human lymphocytes = experiment: Proliferation/apoptosis of normal human lymphocytes (cell number per well, flow cytofluorometry); assay type: cell-based
[5] = system: e-ras cell line (REF transformed with E1A and ras-oncogene); experiment: Number of clones of e-ras cells throughout 72-hr incubation; assay type: cell-based, rat
Protocol: as §1, §2, §5, §4

HL-60 cells = experiment: Proliferation/apoptosis of HL-60 tumor cells (cell number per well, flow cytofluorometry)
Protocol: Subsequent evaluation of the cell cycle parameters was carried out by the flow cytofluorometry technique.
A mononuclear fraction of blood leukocytes were obtained by centrifugation in gradient of fikoll-metrizoat (Histopaque, Sigma). […] Cell viability was estimated by the Trypan blue exclusion method, then the cell suspension was placed into wells of 96-well microtiter plates—200,000 cells per well. […] Cultivation was carried out in closed flasks, the medium volume was 12 mL, it was changed every four days by centrifugation. The nature of the cells growth was suspensive. […] 50 μL of each test solution were added to one or the other cell culture and thereafter cells were cultivated for 24-96 hours. Then, they were tested by the flow cytofluorometry to estimate DNA content in the cell nuclei. In case of apoptosis-like cellular death, the portion of cell nuclei with normal content of DNA became reduced, while the portion of cell nuclei containing abnormally small DNA quantity became larger.
The analysis procedure was the following: after incubation completion, cells were centrifuged and transferred to a standard phosphate isotonic buffer pH 7.4, containing RNA-ase A (20 μg/mL), ethidium bromide (fluorometric indicator for double stranded nucleic acid. 10 μg/mL) and MgCl2 (5 mM). After the cells were disintegrated by nonionic detergent Triton X-100 (final concentration 0.1%). The suspension of cell nuclei thus obtained was analyzed by flow cytofluorometry with an argon laser as a source of light (wave length 488 nm). The red fluorescence due to DNA bound ethidium bromide was taken to be the measure of DNA content in the cell nuclei.

leukemia L1210 cells [6] = experiment: Leukemia L1210 in mice: serum cytokines, ascitic fluid, survival (Example 5); conditions: for Accumulation of ascitic fluid (weight gain) / Concentration in serum: IFNα / Concentration in serum: IL-1 / Concentration in serum: IL-2 / Concentration in serum: IL-6 / Concentration in serum: TNFα: L1210 mice
Protocol: (§12) An influence of 7 day course of test article daily administration was studied in respect of variations of serum cytokine levels (IL-1, IL-2, IL-6, IFNα, TNF). In parallel, the tumor progression was estimated using the two integral indices: pace of mouse weight gain due to accumulation of ascitic fluid, and by animal mean survival time after inoculation.
(§13) The study was carried out on DBA/2 mice weighing 18-21 g. First, tumor cell passage was performed using 6 animals for each cell line. For this, cells kept at the temperature of the liquid nitrogen were de-frozen and adjusted to the concentration of 5×10^6 cells/mL by sterile Hanks' solution. Then, 6 mice were intraperitoneally inoculated with 0.2 mL of each line cellular suspension.
(§14) Ascitic fluid was collected 6 days after the inoculation with L1210 cells and 8 days after the inoculation with P388 ones. Thus obtained, the samples of passaged tumor cells were used for the main experiments. The fluid liquid was dissolved by sterile Hanks' solution so that cell concentration be 5×10^6 cells/mL for P388 cells and 5×10^5 cells/mL for L1210 cells.
(§15) Nine groups of animals with no less than 15 mice each were formed for experiments with either tumor cell line. Mice were inoculated with 0.2 mL of resultant cell suspensions per mouse (10^6 P388 cells/mouse, and 10^5 L1210 cells/mouse). 24 hours after the tumor cells inoculation. animals were given the first injections of the test articles or vehicles. The test article injections were made daily till the 14th day of the experiment or until the animal's death. The volume of solutions injected comprised 0.01 mL/g body weight.
as §10, §11

leukemia P388 cells [7] = experiment: Leukemia P388 in mice: serum cytokines, ascitic fluid, survival (Example 5); conditions: for Accumulation of ascitic fluid (weight gain) / Concentration in serum: IFNα / Concentration in serum: IL-1 / Concentration in serum: IL-2 / Concentration in serum: IL-6 / Concentration in serum: TNFα: P388 mice
Protocol: as §12, §13, §14, §15, §10, §11

leukemia L1210 cells [8] = experiment: Leukemia L1210 in mice: ascitic fluid and survival (Example 14); conditions: for Accumulation of ascitic (weight gain, %): leukemia L1210
Protocol: as §6, §7, §8, §9, §10, §11

[9] = system: rat embrional fibroblasts (REF) after UV-irradiation; experiment: Number of REF cells after UV-irradiation; assay type: cell-based
Protocol: as §1, §2, §3, §4

Structure (SMILES): OO [0.003% H2O2, hydrogen peroxide]
- number of REF cells (M ± m) ([1]; 0 hours of incubation): 822 ± 11 × 10^3 cells
- number of REF cells (M ± m) ([1]; 24 hours of incubation): 1365 ± 14 × 10^3 cells
- number of REF cells (M ± m) ([1]; 48 hours of incubation): 2598 ± 63 × 10^3 cells
- number of REF cells (M ± m) ([1]; 72 hours of incubation): 5059 ± 34 × 10^3 cells
- Accumulation of ascitic (weight gain, %) (leukemia P388 cells [2]; number of injection 0): 0.7 ± 0.2%
- Accumulation of ascitic (weight gain, %) (leukemia P388 cells [2]; number of injection 3): 4.1 ± 0.4%
- Accumulation of ascitic (weight gain, %) (leukemia P388 cells [2]; number of injection 7): 19.0 ± 2.1%
- Mean survival time (leukemia P388 cells [2]; mice inoculated with leukemia P388 cells): 21.2 ± 0.8
- number of clones of e-ras cells after UV-irradiation (M ± m) ([3]; 0 hours): 288 ± 4
- number of clones of e-ras cells after UV-irradiation (M ± m) ([3]; 24 hours): 186 ± 4
- number of clones of e-ras cells after UV-irradiation (M ± m) ([3]; 48 hours): 124 ± 3
- number of clones of e-ras cells after UV-irradiation (M ± m) ([3]; 72 hours): 84 ± 6
- Accumulation of ascitic (weight gain, %) ([4]; number of injection 0): 0.9 ± 0.2%
- Accumulation of ascitic (weight gain, %) ([4]; number of injection 3): 14.1 ± 0.6%
- Accumulation of ascitic (weight gain, %) ([4]; number of injection 7): 27.2 ± 1.2%
- Mean survival time ([4]; mice inoculated with Erlich adenocarcinoma cells): 9.8 ± 0.8
- number of normal lymphocytes per well (normal human lymphocytes; 24 hours incubation): 28 ± 2 × 10^4 cells
- number of normal lymphocytes per well (normal human lymphocytes; 48 hours incubation): 73 ± 5 × 10^4 cells
- number of normal lymphocytes per well (normal human lymphocytes; 72 hours incubation): 123 ± 8 × 10^4 cells
- number of normal lymphocytes per well (normal human lymphocytes; 96 hours incubation): 206 ± 8 × 10^4 cells
- number of clones of e-ras cells (M ± m) ([5]; 0 hours of incubation): 288 ± 4
- number of clones of e-ras cells (M ± m) ([5]; 24 hours of incubation): 286 ± 4
- number of clones of e-ras cells (M ± m) ([5]; 48 hours of incubation): 264 ± 3
- number of clones of e-ras cells (M ± m) ([5]; 72 hours of incubation): 234 ± 6
- number of HL-60 cells per well (HL-60 cells; 24 hours incubation): 122 ± 6 × 10^4 cells
- number of HL-60 cells per well (HL-60 cells; 48 hours incubation): 186 ± 12 × 10^4 cells
- number of HL-60 cells per well (HL-60 cells; 72 hours incubation): 488 ± 24 × 10^4 cells
- number of HL-60 cells per well (HL-60 cells; 96 hours incubation): 712 ± 22 × 10^4 cells
- Accumulation of ascitic fluid (weight gain) (leukemia L1210 cells [6]; 0 injections): 0.79%
- Concentration in serum: IFNα (leukemia L1210 cells [6]; 0 injections): 133.7 pg/mL
- Concentration in serum: IL-1 (leukemia L1210 cells [6]; 0 injections): 17.07 pg/mL
- Concentration in serum: IL-2 (leukemia L1210 cells [6]; 0 injections): 16.18 pg/mL
- Concentration in serum: IL-6 (leukemia L1210 cells [6]; 0 injections): 120.9 pg/mL
- Concentration in serum: TNFα (leukemia L1210 cells [6]; 0 injections): 110. pg/mL
- Accumulation of ascitic fluid (weight gain) (leukemia L1210 cells [6]; 3 daily injections): 6.12%
- Concentration in serum: IFNα (leukemia L1210 cells [6]; 3 daily injections): 189. pg/mL
- Concentration in serum: IL-1 (leukemia L1210 cells [6]; 3 daily injections): 38.15 pg/mL
- Concentration in serum: IL-2 (leukemia L1210 cells [6]; 3 daily injections): 23.5 pg/mL
- Concentration in serum: IL-6 (leukemia L1210 cells [6]; 3 daily injections): 140. pg/mL
- Concentration in serum: TNFα (leukemia L1210 cells [6]; 3 daily injections): 158.0 pg/mL
- Accumulation of ascitic fluid (weight gain) (leukemia L1210 cells [6]; 7 daily injections): 21.61%
- Concentration in serum: IFNα (leukemia L1210 cells [6]; 7 daily injections): 209. pg/mL
- Concentration in serum: IL-1 (leukemia L1210 cells [6]; 7 daily injections): 23.6 pg/mL
- Concentration in serum: IL-2 (leukemia L1210 cells [6]; 7 daily injections): 45.5 pg/mL
- Concentration in serum: IL-6 (leukemia L1210 cells [6]; 7 daily injections): 103. pg/mL
- Concentration in serum: TNFα (leukemia L1210 cells [6]; 7 daily injections): 220.0 ± pg/mL
- Mean survival time (leukemia L1210 cells [6]; mice inoculated with leukemia L1210 cells, daily injections till day 14 or death): 9.7 ± 0.21
- Accumulation of ascitic fluid (weight gain) (leukemia P388 cells [7]; 0 injections): 0.63 ± 0.15%
- Concentration in serum: IFNα (leukemia P388 cells [7]; 0 injections): 129. ± 10.0 pg/mL
- Concentration in serum: IL-1 (leukemia P388 cells [7]; 0 injections): 15.5 ± 2.04 pg/mL
- Concentration in serum: IL-2 (leukemia P388 cells [7]; 0 injections): 14.95 ± 2.16 pg/mL
- Concentration in serum: IL-6 (leukemia P388 cells [7]; 0 injections): 134.0 ± 15.6 pg/mL
- Concentration in serum: TNFα (leukemia P388 cells [7]; 0 injections): 119. ± 9.13 pg/mL
- Accumulation of ascitic fluid (weight gain) (leukemia P388 cells [7]; 3 daily injections): 5.4 ± 0.62%
- Concentration in serum: IFNα (leukemia P388 cells [7]; 3 daily injections): 205.8 ± 18.3 pg/mL
- Concentration in serum: IL-1 (leukemia P388 cells [7]; 3 daily injections): 44.7 ± 6.14 pg/mL
- Concentration in serum: IL-2 (leukemia P388 cells [7]; 3 daily injections): 22.0 ± 2.81 pg/mL
- Concentration in serum: IL-6 (leukemia P388 cells [7]; 3 daily injections): 156.0 ± 16.3 pg/mL
- Concentration in serum: TNFα (leukemia P388 cells [7]; 3 daily injections): 144.5 ± 12.8 pg/mL
- Accumulation of ascitic fluid (weight gain) (leukemia P388 cells [7]; 7 daily injections): 20.3 ± 2.28%
- Concentration in serum: IFNα (leukemia P388 cells [7]; 7 daily injections): 190. ± 16.7 pg/mL
- Concentration in serum: IL-1 (leukemia P388 cells [7]; 7 daily injections): 28.6 ± 4.11 pg/mL
- Concentration in serum: IL-2 (leukemia P388 cells [7]; 7 daily injections): 40.8 ± 5.12 pg/mL
- Concentration in serum: IL-6 (leukemia P388 cells [7]; 7 daily injections): 110.9 ± 12.5 pg/mL
- Concentration in serum: TNFα (leukemia P388 cells [7]; 7 daily injections): 248. ± 20.7 pg/mL
- Mean survival time (leukemia P388 cells [7]; mice inoculated with leukemia P388 cells, daily injections till day 14 or death): 9.9 ± 0.24
- Accumulation of ascitic (weight gain, %) (leukemia L1210 cells [8]; number of injection 0): 0.77 ± 0.2%
- Accumulation of ascitic (weight gain, %) (leukemia L1210 cells [8]; number of injection 3): 6.1 ± 0.4%
- Accumulation of ascitic (weight gain, %) (leukemia L1210 cells [8]; number of injection 7): 19.2 ± 2.2%
- Mean survival time (leukemia L1210 cells [8]; mice inoculated with leukemia L1210 cells): 9.2 ± 0.8
- number of REF cells after UV-irradiation (M ± m) ([9]; 0 hours): 822 ± 11 × 10^3 cells
- number of REF cells after UV-irradiation (M ± m) ([9]; 24 hours): 365 ± 14 × 10^3 cells
- number of REF cells after UV-irradiation (M ± m) ([9]; 48 hours): 258 ± 33 × 10^3 cells
- number of REF cells after UV-irradiation (M ± m) ([9]; 72 hours): 159 ± 24 × 10^3 cells
